According to publication PMC9030254, “Target Hopping from Protein Kinases to PXR: Identification of Small-Molecule Protein Kinase Inhibitors as Selective Modulators of Pregnane X Receptor from TüKIC Library” (Cells, 2022):

Key:
Assay in all cases: Kinase profiling
Assay type in all cases: biochemical
PRKX = target: T1, PRKX (Homo sapiens, UniProt P51817)
T1 construct: purchased ProQinase (Freiburg, Germany)
T1 sequence (P51817 1-358): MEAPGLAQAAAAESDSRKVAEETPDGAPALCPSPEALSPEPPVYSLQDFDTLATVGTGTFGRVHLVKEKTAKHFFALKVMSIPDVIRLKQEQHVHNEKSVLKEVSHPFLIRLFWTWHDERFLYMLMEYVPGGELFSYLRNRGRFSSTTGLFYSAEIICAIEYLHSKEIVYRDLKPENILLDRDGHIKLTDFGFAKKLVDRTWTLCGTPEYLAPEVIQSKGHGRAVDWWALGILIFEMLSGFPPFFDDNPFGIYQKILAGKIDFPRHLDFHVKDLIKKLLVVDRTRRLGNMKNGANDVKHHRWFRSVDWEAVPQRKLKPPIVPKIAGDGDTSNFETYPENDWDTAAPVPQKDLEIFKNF
Experimental: (§1) The analysis was performed by ProQinase (Freiburg, Germany).

p38gamma = target: T2, p38gamma (Homo sapiens, UniProt P53778)
T2 construct: purchased ProQinase (Freiburg, Germany)
T2 sequence (P53778 1-367): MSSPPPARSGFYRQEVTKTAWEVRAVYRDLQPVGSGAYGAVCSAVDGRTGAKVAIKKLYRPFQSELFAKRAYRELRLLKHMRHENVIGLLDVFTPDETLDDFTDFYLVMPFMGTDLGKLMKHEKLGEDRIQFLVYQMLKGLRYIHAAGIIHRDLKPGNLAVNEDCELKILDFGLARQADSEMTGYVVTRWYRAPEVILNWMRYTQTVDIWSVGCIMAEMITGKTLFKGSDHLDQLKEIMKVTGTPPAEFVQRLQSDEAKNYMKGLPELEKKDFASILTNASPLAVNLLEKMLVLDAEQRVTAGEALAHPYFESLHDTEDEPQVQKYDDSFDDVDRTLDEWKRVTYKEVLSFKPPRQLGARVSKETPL
Experimental: as §1

WEE1 = target: T3, WEE1 (Homo sapiens, UniProt P30291)
T3 construct: purchased ProQinase (Freiburg, Germany)
T3 sequence (P30291 whole entry): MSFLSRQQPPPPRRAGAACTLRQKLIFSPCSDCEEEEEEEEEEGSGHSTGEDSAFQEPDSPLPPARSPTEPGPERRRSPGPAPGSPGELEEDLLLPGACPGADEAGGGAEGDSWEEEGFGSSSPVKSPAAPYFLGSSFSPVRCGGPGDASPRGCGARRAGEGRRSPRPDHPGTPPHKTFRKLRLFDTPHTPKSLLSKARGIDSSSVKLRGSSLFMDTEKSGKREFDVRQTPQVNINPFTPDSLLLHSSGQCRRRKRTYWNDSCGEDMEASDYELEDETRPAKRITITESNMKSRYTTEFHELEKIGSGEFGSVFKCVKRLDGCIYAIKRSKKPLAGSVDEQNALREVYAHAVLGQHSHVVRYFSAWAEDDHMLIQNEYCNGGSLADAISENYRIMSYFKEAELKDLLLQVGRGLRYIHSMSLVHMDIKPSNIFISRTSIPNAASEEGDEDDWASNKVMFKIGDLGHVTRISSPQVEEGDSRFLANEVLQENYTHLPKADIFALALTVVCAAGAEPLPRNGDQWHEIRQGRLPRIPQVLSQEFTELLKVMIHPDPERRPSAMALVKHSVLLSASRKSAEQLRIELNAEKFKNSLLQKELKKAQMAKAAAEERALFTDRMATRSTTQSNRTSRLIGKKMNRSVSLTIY
Experimental: as §1

DYRK1B = target: T4, DYRK1B (Homo sapiens, UniProt Q9Y463)
T4 construct: purchased ProQinase (Freiburg, Germany)
T4 sequence (Q9Y463 whole entry): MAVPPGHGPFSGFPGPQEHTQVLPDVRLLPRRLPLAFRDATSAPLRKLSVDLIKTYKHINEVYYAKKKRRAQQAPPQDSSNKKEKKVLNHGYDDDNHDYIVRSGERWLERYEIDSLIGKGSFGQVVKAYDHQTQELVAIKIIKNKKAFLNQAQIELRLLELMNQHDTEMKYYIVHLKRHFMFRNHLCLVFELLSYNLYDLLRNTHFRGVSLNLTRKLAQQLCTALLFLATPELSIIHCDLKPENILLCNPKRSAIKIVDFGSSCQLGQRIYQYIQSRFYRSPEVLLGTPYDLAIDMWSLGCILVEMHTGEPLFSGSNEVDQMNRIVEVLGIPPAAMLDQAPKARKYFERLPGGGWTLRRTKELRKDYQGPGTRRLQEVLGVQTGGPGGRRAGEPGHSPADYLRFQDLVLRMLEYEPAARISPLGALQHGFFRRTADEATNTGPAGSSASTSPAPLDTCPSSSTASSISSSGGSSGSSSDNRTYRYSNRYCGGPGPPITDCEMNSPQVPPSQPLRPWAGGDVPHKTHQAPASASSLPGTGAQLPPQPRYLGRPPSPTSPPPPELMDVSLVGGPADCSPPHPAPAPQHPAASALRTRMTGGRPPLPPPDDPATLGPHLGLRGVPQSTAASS
Experimental: as §1

CAMK2A = target: T5, CAMK2A (Homo sapiens, UniProt Q9UQM7)
T5 construct: purchased ProQinase (Freiburg, Germany)
T5 sequence (Q9UQM7 whole entry): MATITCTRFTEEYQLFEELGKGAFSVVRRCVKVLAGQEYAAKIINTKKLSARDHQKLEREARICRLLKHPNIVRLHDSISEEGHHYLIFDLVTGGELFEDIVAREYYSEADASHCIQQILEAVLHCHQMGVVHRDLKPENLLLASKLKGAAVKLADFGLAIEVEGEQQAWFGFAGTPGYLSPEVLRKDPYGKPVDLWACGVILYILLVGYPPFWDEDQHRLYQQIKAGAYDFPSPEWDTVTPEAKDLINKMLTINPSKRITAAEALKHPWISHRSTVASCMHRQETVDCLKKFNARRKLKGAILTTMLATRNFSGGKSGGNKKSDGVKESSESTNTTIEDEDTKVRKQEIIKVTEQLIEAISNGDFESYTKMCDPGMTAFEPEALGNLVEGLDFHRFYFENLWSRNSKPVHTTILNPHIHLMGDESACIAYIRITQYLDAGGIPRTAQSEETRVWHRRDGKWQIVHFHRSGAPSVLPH
Experimental: as §1

LCK = target: T6, LCK (Homo sapiens, UniProt P06239)
T6 construct: purchased ProQinase (Freiburg, Germany)
Experimental: as §1

CLK3 = target: T7, CLK3 (Homo sapiens, UniProt P49761)
T7 construct: purchased ProQinase (Freiburg, Germany)
T7 sequence (P49761 whole entry): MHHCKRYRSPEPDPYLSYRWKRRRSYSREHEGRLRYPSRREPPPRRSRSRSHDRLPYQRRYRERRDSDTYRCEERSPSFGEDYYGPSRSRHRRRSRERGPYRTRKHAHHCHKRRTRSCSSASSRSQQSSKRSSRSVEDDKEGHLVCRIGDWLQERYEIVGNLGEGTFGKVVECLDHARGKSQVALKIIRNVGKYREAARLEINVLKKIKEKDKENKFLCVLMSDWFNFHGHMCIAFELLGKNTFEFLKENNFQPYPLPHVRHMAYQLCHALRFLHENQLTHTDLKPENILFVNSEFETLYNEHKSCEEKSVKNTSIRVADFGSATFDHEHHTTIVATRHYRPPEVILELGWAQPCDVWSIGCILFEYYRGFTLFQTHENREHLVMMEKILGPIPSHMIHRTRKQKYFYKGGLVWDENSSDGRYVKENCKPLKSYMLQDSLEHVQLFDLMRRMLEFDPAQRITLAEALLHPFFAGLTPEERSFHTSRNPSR
Experimental: as §1

AKT1 = target: T8, AKT1 (Homo sapiens, UniProt P31749)
T8 construct: purchased ProQinase (Freiburg, Germany)
Experimental: as §1

CAMK1D = target: T9, CAMK1D (Homo sapiens, UniProt Q8IU85)
T9 construct: purchased ProQinase (Freiburg, Germany)
T9 sequence (Q8IU85 whole entry): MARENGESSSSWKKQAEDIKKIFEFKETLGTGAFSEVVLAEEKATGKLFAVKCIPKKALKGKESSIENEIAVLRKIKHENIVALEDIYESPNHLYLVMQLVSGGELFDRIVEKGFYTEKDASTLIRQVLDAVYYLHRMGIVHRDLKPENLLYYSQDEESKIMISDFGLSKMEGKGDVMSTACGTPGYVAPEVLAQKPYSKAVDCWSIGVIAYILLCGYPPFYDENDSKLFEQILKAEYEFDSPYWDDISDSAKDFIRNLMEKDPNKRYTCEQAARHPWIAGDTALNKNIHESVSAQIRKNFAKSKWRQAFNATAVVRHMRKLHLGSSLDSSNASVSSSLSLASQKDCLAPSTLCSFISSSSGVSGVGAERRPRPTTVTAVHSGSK
Experimental: as §1

MYLK2 = target: T10, MYLK2 (Homo sapiens, UniProt Q9H1R3)
T10 construct: purchased ProQinase (Freiburg, Germany)
T10 sequence (Q9H1R3 whole entry): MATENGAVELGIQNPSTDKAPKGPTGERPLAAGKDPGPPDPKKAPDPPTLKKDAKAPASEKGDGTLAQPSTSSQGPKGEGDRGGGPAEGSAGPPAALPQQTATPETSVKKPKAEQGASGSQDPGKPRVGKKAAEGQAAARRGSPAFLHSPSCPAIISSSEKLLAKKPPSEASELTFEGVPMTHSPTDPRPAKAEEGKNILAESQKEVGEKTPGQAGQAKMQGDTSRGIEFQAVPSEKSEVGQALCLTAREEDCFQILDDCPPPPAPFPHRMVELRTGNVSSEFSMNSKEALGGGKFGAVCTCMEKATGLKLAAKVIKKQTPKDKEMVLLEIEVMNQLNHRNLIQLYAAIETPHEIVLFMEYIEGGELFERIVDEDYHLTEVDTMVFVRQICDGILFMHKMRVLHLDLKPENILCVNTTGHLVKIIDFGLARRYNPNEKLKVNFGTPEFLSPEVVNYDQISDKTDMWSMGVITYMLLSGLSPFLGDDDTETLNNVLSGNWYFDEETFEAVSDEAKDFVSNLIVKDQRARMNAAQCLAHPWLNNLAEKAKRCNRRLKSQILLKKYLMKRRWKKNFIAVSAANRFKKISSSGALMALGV
Experimental: as §1

MEK5 = target: T11, MEK5 (Homo sapiens, UniProt Q13163)
T11 construct: purchased ProQinase (Freiburg, Germany)
T11 sequence (Q13163 1-448): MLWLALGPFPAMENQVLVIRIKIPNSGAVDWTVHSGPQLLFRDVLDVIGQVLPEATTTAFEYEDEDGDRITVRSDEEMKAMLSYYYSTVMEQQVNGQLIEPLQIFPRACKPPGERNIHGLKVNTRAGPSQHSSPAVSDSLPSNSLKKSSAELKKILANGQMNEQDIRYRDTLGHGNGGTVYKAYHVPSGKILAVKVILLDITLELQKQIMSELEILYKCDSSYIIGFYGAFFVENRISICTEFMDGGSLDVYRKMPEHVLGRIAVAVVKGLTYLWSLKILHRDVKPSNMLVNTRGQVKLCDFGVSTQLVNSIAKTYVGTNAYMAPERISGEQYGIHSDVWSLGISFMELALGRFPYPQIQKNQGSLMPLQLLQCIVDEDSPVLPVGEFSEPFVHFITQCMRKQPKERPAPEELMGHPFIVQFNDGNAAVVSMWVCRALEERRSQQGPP
Experimental: as §1

MASTL = target: T12, MASTL (Homo sapiens, UniProt Q96GX5)
T12 construct: purchased ProQinase (Freiburg, Germany)
T12 sequence (Q96GX5 1-879): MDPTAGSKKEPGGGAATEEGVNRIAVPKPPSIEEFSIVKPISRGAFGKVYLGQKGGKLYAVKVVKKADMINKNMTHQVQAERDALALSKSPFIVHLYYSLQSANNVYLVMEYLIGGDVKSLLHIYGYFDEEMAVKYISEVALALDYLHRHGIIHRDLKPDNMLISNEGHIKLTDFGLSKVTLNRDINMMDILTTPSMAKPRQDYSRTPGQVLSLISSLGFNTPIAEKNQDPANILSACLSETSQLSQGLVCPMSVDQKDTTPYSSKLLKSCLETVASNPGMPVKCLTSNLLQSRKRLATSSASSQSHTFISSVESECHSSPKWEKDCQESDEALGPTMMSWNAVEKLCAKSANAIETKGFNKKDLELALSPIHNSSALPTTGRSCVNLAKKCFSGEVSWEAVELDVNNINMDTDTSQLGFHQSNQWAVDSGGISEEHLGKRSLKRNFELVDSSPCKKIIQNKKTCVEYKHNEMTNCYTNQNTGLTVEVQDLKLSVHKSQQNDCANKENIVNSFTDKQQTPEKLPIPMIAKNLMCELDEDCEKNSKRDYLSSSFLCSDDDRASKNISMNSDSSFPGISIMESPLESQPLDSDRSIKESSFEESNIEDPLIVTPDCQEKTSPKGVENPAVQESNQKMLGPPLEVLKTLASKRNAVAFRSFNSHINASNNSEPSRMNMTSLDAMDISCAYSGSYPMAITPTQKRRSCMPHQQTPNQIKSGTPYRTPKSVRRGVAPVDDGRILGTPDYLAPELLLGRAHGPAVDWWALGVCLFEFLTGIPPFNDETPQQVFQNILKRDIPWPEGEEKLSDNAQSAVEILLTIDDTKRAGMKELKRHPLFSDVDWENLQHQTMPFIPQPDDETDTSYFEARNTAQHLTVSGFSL
Experimental: as §1

CDC42BPA = target: T13, CDC42BPA (Homo sapiens, UniProt Q5VT25)
T13 construct: purchased ProQinase (Freiburg, Germany)
T13 sequence (Q5VT25 whole entry): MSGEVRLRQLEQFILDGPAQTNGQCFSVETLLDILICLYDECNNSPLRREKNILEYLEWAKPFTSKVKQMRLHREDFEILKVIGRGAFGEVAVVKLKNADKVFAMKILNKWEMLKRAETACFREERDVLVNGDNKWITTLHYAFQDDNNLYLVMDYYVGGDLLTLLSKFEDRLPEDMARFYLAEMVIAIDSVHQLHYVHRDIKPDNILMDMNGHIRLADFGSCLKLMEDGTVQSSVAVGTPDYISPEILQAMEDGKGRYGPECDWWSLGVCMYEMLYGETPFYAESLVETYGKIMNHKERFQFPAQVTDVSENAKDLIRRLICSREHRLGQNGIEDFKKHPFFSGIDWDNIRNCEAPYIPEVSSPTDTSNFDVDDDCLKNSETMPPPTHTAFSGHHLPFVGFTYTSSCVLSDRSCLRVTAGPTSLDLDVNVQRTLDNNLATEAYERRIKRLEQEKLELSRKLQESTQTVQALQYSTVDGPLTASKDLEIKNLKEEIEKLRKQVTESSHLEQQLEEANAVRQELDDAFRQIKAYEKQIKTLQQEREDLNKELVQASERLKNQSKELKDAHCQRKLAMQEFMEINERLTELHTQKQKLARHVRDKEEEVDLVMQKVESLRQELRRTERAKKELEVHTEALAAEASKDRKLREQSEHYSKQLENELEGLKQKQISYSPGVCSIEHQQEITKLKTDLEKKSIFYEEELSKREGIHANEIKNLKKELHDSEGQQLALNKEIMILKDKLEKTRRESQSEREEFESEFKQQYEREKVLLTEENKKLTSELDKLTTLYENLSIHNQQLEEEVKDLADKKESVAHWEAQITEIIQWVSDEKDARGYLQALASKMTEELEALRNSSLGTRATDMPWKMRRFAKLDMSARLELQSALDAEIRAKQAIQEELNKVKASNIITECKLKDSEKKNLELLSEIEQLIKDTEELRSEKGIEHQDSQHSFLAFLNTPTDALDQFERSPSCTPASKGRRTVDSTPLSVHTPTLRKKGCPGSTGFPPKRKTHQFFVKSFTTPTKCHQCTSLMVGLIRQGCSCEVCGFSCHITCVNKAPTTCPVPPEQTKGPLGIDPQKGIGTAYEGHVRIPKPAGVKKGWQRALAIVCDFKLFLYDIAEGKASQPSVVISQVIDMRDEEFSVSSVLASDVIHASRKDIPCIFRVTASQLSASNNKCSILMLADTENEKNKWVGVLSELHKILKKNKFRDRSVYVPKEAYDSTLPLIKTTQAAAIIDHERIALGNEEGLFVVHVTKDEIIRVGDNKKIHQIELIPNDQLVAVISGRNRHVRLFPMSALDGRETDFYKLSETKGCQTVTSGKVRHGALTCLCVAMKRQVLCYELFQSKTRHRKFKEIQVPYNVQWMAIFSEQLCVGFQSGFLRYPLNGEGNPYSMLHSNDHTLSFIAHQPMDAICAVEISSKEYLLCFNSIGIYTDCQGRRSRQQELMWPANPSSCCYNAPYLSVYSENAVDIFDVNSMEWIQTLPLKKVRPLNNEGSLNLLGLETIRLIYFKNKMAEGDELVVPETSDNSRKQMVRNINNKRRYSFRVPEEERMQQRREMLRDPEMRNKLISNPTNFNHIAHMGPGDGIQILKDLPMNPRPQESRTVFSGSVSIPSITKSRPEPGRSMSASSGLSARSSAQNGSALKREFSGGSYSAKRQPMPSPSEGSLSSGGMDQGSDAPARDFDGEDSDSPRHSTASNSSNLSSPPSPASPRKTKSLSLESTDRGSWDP
Experimental: as §1

| Structure (SMILES) | Residual activity (PRKX; 1.0E-05 M) | Residual activity (PRKX; 1.0E-06 M) | Residual activity (p38gamma; 1.0E-05 M) | Residual activity (p38gamma; 1.0E-06 M) | Residual activity (WEE1; 1.0E-05 M) | Residual activity (WEE1; 1.0E-06 M) | Residual activity (DYRK1B; 1.0E-05 M) | Residual activity (DYRK1B; 1.0E-06 M) | Residual activity (CAMK2A; 1.0E-05 M) | Residual activity (CAMK2A; 1.0E-06 M) | Residual activity (LCK; 1.0E-05 M) | Residual activity (LCK; 1.0E-06 M) | Residual activity (CLK3; 1.0E-05 M) | Residual activity (CLK3; 1.0E-06 M) | Residual activity (AKT1; 1.0E-05 M) | Residual activity (AKT1; 1.0E-06 M) | Residual activity (CAMK1D; 1.0E-05 M) | Residual activity (CAMK1D; 1.0E-06 M) | Residual activity (MYLK2; 1.0E-05 M) | Residual activity (MYLK2; 1.0E-06 M) | also measured |
| --- | --- | --- | --- | --- | --- | --- | --- | --- | --- | --- | --- | --- | --- | --- | --- | --- | --- | --- | --- | --- | --- |
| O=C(Nc1ccc(F)c(Nc2ccc3c(c2)CCCCC3=O)c1)c1cccc(F)c1 [Compound 109] | 85 % of control | 95 % of control | 52 % of control | 88 % of control | 95 % of control | 100 % of control | 96 % of control | 103 % of control | 91 % of control | 95 % of control | 84 % of control | 102 % of control | 105 % of control | 110 % of control | 97 % of control | 101 % of control | 89 % of control | 93 % of control | 79 % of control | 85 % of control | Residual activity (MEK5; 1.0E-05 M): 94 % of control; Residual activity (MEK5; 1.0E-06 M): 104 % of control; Residual activity (MASTL; 1.0E-05 M): 99 % of control; Residual activity (MASTL; 1.0E-06 M): 94 % of control; Residual activity (CDC42BPA; 1.0E-05 M): 116 % of control; Residual activity (CDC42BPA; 1.0E-06 M): 103 % of control |
| O=C(Cc1ccccc1)Nc1ccc(F)c(Nc2ccc3c(c2)CCCCC3=O)c1 [Compound 100] | 88 % of control | 102 % of control | 84 % of control | 93 % of control | 100 % of control | 103 % of control | 117 % of control | 103 % of control | 94 % of control | 96 % of control | 66 % of control | 107 % of control | 114 % of control | 130 % of control | 88 % of control | 99 % of control | 88 % of control | 85 % of control | 82 % of control | 93 % of control | Residual activity (MEK5; 1.0E-05 M): 114 % of control; Residual activity (MEK5; 1.0E-06 M): 118 % of control; Residual activity (MASTL; 1.0E-05 M): 92 % of control; Residual activity (MASTL; 1.0E-06 M): 99 % of control; Residual activity (CDC42BPA; 1.0E-05 M): 110 % of control; Residual activity (CDC42BPA; 1.0E-06 M): 114 % of control |
